ChEMBL document CHEMBL2346616, “Design and synthesis of novel pyrimido[4,5-b]azepine derivatives as HER2/EGFR dual inhibitors” (Bioorg Med Chem, 2013)
Calls of active or inactive are those of the source. The rule behind the calls is not given here.

Key:
[1] = biological target: Serine/threonine-protein kinase PLK1 (Homo sapiens, UniProt P53350); test: Inhibition of N-terminal FLAG-tagged PLK (unknown origin) expressed in baculovirus expression system incubated for 5 mins prior to [gamma-33P]ATP addition measured after 40 mins by scintillation counting analysis
[2] = biological target: Insulin-like growth factor 1 receptor (Homo sapiens, UniProt P08069); test: Inhibition of IGF1R (unknown origin) incubated for 5 mins prior to ATP addition measured after 20 mins by Alphascreen assay
[3] = biological target: Vascular endothelial growth factor receptor 1 (Homo sapiens, UniProt P17948); test: Inhibition of VEGFR1 (unknown origin) incubated for 5 mins prior to ATP addition measured after 5 mins by Alphascreen assay
[4] = biological target: Fibroblast growth factor receptor 3 (Homo sapiens, UniProt P22607); test: Inhibition of FGFR3 (unknown origin) incubated for 5 mins prior to ATP addition measured after 10 mins by Alphascreen assay
[5] = biological target: Dual specificity protein kinase TTK (Homo sapiens, UniProt P33981); test: Inhibition of N-terminal FLAG-tagged TTK (unknown origin) expressed in baculovirus expression system incubated for 5 mins prior to [gamma-33P]ATP addition measured after 10 mins by scintillation counting analysis
[6] = biological target: Mitogen-activated protein kinase 8 (Homo sapiens, UniProt P45983); test: Inhibition of N-terminal FLAG-tagged JNK1 (unknown origin) expressed in baculovirus expression system incubated for 5 mins prior to [gamma-33P]ATP addition measured after 60 mins by scintillation counting analysis
[7] = biological target: Fibroblast growth factor receptor 1 (Homo sapiens, UniProt P11362); test: Inhibition of FGFR1 (unknown origin) incubated for 5 mins prior to ATP addition measured after 10 mins by Alphascreen assay
BT-474 = test: Growth inhibition of human BT474 cells overexpressing HER2 after 5 days; assay type: functional; settings: BT-474, 120 h
[8] = biological target: T1, Receptor tyrosine-protein kinase erbB-2 (Homo sapiens, UniProt P04626); test: Inhibition of human N-terminal DYKDDDD-tagged HER2 cytoplasmic domain (676 to 1255) expressed in baculovirus expression system incubated for 5 mins prior to [gamma-32P]ATP addition measured after 10 mins by scintillation counting analysis
[9] = biological target: Cytoplasmic tyrosine-protein kinase BMX (Homo sapiens, UniProt P51813); test: Inhibition of N-terminal FLAG-tagged full length BMX (unknown origin) expressed in baculovirus expression system incubated for 5 mins prior to ATP addition measured after 10 mins by Alphascreen assay
[10] = biological target: Mitogen-activated protein kinase 3 (Homo sapiens, UniProt P27361); test: Inhibition of N-terminal FLAG-tagged ERK1 (unknown origin) expressed in baculovirus expression system incubated for 5 mins prior to [gamma-33P]ATP addition measured after 60 mins by scintillation counting analysis
[11] = biological target: T1, Receptor tyrosine-protein kinase erbB-2; test: Pseudo-irreversible inhibition of human N-terminal DYKDDDD-tagged HER2 cytoplasmic domain (676 to 1255) expressed in baculovirus expression system at 10 times IC50 preincubated for 15 mins followed by 100 fold dilution measured after 16 hrs by Alphascreen assay
[12] = biological target: T2, Tyrosine-protein kinase Lyn (Homo sapiens, UniProt P07948); test: Inhibition of LYNB (unknown origin) incubated for 5 mins prior to ATP addition measured after 10 mins by Alphascreen assay
[13] = biological target: Inhibitor of nuclear factor kappa-B kinase subunit beta (Homo sapiens, UniProt O14920); test: Inhibition of C-terminal FLAG-tagged IKKbeta (unknown origin) expressed in baculovirus expression system incubated for 5 mins prior to [gamma-33P]ATP addition measured after 5 mins by scintillation counting analysis
[14] = biological target: Mitogen-activated protein kinase kinase kinase 5 (Homo sapiens, UniProt Q99683); test: Inhibition of N-terminal FLAG-tagged ASK1 (unknown origin) expressed in baculovirus expression system incubated for 5 mins prior to [gamma-33P]ATP addition measured after 60 mins by scintillation counting analysis
[15] = biological target: Receptor tyrosine-protein kinase erbB-4 (Homo sapiens, UniProt Q15303); test: Inhibition of HER4 cytoplasmic domain (unknown origin) expressed in baculovirus expression system incubated for 5 mins prior to [gamma-32P]ATP addition measured after 10 mins by scintillation counting analysis
[16] = biological target: Glycogen synthase kinase-3 beta (Homo sapiens, UniProt P49841); test: Inhibition of N-terminal FLAG-tagged GSK3beta (unknown origin) expressed in baculovirus expression system incubated for 5 mins prior to [gamma-33P]ATP addition measured after 30 mins by scintillation counting analysis
[17] = biological target: Dual specificity mitogen-activated protein kinase kinase 1 (Homo sapiens, UniProt Q02750); test: Inhibition of N-terminal GST-fused MEK1 (unknown origin) incubated for 5 mins prior to [gamma-33P]ATP addition measured after 20 mins by scintillation counting analysis
Insulin receptor = Insulin receptor (Homo sapiens, UniProt P06213); test: Inhibition of InsR (unknown origin) incubated for 5 mins prior to ATP addition measured after 60 mins by Alphascreen assay
Angiopoietin-1 receptor = Angiopoietin-1 receptor (Homo sapiens, UniProt Q02763); test: Inhibition of TIE2 (unknown origin) incubated for 5 mins prior to ATP addition measured after 10 mins by Alphascreen assay
[18] = biological target: Serine/threonine-protein kinase B-raf (Homo sapiens, UniProt P15056); test: Inhibition of wild type N-terminal FLAG-tagged B-raf (unknown origin) expressed in baculovirus expression system incubated for 5 mins prior to [gamma-33P]ATP addition measured after 20 mins by scintillation counting analysis
[19] = Inhibition of PKA (unknown origin) expressed in Escherichia coli expression system incubated for 5 mins prior to [gamma-33P]ATP addition measured after 10 mins by scintillation counting analysis; parameters: species or system Homo sapiens
[20] = biological target: Tyrosine-protein kinase Lck (Homo sapiens, UniProt P06239); test: Inhibition of LCK (unknown origin) incubated for 5 mins prior to ATP addition measured after 30 mins by Alphascreen assay
[21] = biological target: Vascular endothelial growth factor receptor 2 (Homo sapiens, UniProt P35968); test: Inhibition of N-terminal FLAG-tagged VEGFR2 cytoplasmic domain (unknown origin) incubated for 5 mins prior to ATP addition measured after 10 mins by Alphascreen assay
[22] = biological target: Tyrosine-protein kinase ZAP-70 (Homo sapiens, UniProt P43403); test: Inhibition of ZAP70 (unknown origin) incubated for 5 mins prior to ATP addition measured after 10 mins by Alphascreen assay
[23] = biological target: Mitogen-activated protein kinase kinase kinase 1 (Homo sapiens, UniProt Q13233); test: Inhibition of C-terminal FLAG-tagged MEKK (unknown origin) expressed in baculovirus expression system incubated for 5 mins prior to [gamma-33P]ATP addition measured after 60 mins by scintillation counting analysis
[24] = biological target: T2, Tyrosine-protein kinase Lyn; test: Inhibition of LYNA (unknown origin) incubated for 5 mins prior to ATP addition measured after 10 mins by Alphascreen assay
[25] = biological target: Mast/stem cell growth factor receptor Kit (Homo sapiens, UniProt P10721); test: Inhibition of c-kit (unknown origin) incubated for 5 mins prior to ATP addition measured after 20 mins by Alphascreen assay
[26] = biological target: Mitogen-activated protein kinase 14 (Homo sapiens, UniProt Q16539); test: Inhibition of N-terminal FLAG-tagged p38alpha (unknown origin) expressed in baculovirus expression system incubated for 5 mins prior to [gamma-33P]ATP addition measured after 60 mins by scintillation counting analysis
[27] = biological target: Tyrosine-protein kinase CSK (Homo sapiens, UniProt P41240); test: Inhibition of CSK (unknown origin) incubated for 5 mins prior to ATP addition measured after 10 mins by Alphascreen assay
[28] = biological target: Platelet-derived growth factor receptor alpha (Homo sapiens, UniProt P16234); test: Inhibition of PDGFRalpha (unknown origin) incubated for 5 mins prior to ATP addition measured after 30 mins by Alphascreen assay
[29] = biological target: Protein kinase C theta type (Homo sapiens, UniProt Q04759); test: Inhibition of N-terminal FLAG-tagged PKCtheta (unknown origin) expressed in baculovirus expression system incubated for 5 mins prior to [gamma-33P]ATP addition measured after 60 mins by scintillation counting analysis
[30] = biological target: Platelet-derived growth factor receptor beta (Homo sapiens, UniProt P09619); test: Inhibition of PDGFRbeta (unknown origin) incubated for 5 mins prior to ATP addition measured after 60 mins by Alphascreen assay
[31] = biological target: Dual specificity mitogen-activated protein kinase kinase 5 (Homo sapiens, UniProt Q13163); test: Inhibition of N-terminal FLAG-tagged MEK5 (unknown origin) expressed in baculovirus expression system incubated for 5 mins prior to [gamma-33P]ATP addition measured after 30 mins by scintillation counting analysis
[32] = biological target: Hepatocyte growth factor receptor (Homo sapiens, UniProt P08581); test: Inhibition of c-MET (unknown origin) incubated for 5 mins prior to ATP addition measured after 10 mins by Alphascreen assay
Aurora kinase B = Aurora kinase B (Homo sapiens, UniProt Q96GD4); test: Inhibition of N-terminal His6x-tagged aurora-B (unknown origin) expressed in baculovirus expression system incubated for 5 mins prior to [gamma-33P]ATP addition measured after 60 mins by scintillation counting analysis
[33] = biological target: Epidermal growth factor receptor (Homo sapiens, UniProt P00533); test: Inhibition of human N-terminal DYKDDDD-tagged EGFR cytoplasmic domain (669 to 1210) expressed in baculovirus expression system incubated for 5 mins prior to [gamma-32P]ATP addition measured after 10 mins by scintillation counting analysis
Chain of Epidermal growth factor receptor (P00533 whole entry, the tested form may be a part): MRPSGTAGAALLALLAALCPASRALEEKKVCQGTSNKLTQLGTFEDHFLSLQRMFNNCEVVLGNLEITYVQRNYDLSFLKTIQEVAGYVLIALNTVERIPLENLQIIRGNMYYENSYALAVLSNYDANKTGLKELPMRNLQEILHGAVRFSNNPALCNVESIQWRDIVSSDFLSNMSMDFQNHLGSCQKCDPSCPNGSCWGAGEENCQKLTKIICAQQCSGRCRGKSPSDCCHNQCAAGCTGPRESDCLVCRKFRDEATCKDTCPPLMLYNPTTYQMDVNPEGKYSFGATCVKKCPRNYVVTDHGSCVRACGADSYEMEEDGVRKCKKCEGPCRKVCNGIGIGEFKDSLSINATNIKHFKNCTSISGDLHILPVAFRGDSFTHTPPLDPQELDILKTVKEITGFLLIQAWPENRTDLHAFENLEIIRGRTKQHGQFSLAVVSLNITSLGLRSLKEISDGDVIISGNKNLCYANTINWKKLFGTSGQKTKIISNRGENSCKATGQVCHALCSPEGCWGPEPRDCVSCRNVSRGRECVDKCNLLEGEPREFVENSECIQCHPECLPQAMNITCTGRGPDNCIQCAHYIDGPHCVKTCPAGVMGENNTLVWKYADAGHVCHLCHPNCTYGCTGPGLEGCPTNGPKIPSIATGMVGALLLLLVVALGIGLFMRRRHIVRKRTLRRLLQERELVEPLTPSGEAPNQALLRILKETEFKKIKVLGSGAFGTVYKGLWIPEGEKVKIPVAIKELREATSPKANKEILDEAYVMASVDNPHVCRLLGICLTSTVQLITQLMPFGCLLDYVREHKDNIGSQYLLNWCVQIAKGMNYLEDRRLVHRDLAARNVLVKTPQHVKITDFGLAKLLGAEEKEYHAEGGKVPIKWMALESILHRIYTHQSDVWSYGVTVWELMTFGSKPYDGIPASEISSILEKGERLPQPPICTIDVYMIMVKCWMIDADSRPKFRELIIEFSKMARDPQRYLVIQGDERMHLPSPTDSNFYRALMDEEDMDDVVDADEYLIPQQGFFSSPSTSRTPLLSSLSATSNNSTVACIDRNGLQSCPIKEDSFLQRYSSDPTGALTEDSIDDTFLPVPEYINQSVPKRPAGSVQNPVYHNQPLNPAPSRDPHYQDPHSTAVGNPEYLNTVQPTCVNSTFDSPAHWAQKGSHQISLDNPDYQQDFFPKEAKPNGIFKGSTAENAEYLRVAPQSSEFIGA

T1 sequence (P04626 whole entry, the tested form may be a part): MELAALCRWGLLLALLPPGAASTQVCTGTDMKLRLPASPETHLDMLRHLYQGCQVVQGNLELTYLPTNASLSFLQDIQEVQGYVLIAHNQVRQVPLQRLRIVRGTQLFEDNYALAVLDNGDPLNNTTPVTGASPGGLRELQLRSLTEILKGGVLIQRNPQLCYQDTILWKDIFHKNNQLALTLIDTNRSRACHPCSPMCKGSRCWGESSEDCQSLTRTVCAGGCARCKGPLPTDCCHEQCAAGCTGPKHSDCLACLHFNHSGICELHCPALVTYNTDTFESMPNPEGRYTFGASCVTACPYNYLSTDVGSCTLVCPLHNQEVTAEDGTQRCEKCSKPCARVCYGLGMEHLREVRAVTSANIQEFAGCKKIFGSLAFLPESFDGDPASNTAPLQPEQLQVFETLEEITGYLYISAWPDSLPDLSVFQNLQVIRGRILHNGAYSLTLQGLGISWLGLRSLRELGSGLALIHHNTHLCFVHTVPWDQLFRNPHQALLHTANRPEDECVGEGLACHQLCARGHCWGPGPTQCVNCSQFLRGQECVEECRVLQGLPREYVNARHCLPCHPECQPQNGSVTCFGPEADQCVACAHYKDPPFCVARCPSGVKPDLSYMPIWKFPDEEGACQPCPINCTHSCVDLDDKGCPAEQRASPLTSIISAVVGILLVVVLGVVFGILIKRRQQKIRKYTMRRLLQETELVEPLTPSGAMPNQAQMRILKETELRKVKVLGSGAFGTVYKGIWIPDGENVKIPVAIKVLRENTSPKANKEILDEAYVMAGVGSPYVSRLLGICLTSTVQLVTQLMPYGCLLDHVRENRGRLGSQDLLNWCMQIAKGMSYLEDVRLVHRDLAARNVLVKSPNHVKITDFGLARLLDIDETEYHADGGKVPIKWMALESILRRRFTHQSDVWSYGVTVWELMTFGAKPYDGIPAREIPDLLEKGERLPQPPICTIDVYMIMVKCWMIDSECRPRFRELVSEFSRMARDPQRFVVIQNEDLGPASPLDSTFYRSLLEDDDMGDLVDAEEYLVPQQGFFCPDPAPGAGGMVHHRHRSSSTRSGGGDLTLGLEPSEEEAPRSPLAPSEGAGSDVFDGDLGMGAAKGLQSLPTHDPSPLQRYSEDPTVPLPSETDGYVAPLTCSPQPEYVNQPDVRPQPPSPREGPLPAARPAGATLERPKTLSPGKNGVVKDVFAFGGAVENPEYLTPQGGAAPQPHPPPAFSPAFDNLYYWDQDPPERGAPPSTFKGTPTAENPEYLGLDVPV
T2 sequence (P07948 whole entry): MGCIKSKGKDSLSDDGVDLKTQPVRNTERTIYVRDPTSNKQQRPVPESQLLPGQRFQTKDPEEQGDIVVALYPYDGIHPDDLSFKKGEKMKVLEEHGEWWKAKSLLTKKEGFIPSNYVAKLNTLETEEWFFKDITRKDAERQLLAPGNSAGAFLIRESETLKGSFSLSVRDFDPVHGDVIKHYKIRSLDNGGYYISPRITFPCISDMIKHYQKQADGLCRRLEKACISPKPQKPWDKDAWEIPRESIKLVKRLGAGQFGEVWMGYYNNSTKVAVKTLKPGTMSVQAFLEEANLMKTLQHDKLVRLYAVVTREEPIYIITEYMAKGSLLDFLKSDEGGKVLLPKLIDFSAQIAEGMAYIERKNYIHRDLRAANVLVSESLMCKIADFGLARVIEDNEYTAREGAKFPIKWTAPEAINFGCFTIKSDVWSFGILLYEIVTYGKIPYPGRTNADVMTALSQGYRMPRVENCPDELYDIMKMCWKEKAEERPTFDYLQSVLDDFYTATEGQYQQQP
Chain of Inhibitor of nuclear factor kappa-B kinase subunit beta (O14920 whole entry): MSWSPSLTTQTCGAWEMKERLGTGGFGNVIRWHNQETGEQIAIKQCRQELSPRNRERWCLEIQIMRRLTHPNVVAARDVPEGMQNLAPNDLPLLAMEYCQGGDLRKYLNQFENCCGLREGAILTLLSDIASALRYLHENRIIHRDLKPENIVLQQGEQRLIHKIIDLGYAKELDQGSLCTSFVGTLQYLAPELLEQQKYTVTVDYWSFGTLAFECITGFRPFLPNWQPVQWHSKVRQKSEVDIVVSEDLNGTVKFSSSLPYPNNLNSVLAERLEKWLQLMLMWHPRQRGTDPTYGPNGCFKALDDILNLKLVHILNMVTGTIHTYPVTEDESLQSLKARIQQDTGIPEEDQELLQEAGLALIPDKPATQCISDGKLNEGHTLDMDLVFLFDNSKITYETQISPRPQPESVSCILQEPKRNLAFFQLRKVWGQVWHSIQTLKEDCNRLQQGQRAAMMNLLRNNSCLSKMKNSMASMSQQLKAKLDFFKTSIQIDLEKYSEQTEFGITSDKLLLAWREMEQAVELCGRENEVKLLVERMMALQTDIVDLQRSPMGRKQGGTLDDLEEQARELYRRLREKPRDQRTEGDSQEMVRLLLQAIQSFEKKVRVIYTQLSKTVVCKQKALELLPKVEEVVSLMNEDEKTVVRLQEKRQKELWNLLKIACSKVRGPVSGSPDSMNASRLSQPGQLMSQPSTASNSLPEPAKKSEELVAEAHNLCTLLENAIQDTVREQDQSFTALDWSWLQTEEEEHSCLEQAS
Chain of Protein kinase C theta type (Q04759 whole entry): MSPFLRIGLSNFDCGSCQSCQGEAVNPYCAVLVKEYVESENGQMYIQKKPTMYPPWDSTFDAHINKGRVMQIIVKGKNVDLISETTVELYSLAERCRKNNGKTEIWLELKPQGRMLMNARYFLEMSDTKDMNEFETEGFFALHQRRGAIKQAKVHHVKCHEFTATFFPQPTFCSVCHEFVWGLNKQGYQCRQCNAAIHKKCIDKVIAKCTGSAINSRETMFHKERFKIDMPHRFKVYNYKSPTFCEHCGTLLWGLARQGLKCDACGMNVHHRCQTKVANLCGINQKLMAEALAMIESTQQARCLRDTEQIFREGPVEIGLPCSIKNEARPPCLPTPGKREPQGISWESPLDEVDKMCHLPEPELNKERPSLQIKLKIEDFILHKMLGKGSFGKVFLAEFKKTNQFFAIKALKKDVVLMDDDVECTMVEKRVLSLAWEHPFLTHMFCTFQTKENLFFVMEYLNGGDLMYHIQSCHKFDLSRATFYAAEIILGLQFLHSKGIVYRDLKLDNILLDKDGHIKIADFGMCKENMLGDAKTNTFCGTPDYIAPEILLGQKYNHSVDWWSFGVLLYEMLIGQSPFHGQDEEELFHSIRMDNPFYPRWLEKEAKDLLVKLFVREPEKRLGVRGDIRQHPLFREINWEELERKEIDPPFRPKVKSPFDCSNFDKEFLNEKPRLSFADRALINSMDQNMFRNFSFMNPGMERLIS
Chain of Mitogen-activated protein kinase 3 (P27361 whole entry, the tested form may be a part): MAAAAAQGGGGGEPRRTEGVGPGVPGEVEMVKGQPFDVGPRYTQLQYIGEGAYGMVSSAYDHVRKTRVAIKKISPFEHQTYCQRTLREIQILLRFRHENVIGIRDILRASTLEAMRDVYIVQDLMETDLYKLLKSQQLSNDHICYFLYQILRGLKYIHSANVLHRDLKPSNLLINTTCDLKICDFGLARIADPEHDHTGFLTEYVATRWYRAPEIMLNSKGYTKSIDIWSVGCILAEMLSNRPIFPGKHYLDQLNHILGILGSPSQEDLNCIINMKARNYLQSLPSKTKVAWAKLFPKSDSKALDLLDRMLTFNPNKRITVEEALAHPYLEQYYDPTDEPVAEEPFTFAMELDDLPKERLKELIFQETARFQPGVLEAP

O=C(NCCO)C1=Cc2c(ncnc2Nc2ccc(Oc3cccc4sccc34)c(Cl)c2)NCC1
IC50 [1]: > 10000 nM
IC50 [2]: > 10000 nM
IC50 [3]: > 10000 nM
IC50 [4]: > 10000 nM
IC50 [5]: > 10000 nM
IC50 [6]: > 10000 nM
IC50 [7]: > 10000 nM
GI50 (BT-474): 18 nM
IC50 [8]: 24 nM
IC50 [9]: > 10000 nM
IC50 [10]: > 10000 nM
inhibition [11]: Active
IC50 [12]: 3000 nM
IC50 [13]: > 10000 nM
IC50 [14]: > 10000 nM
IC50 [15]: 240 nM
IC50 [16]: > 10000 nM
IC50 [17]: > 10000 nM
IC50 (Insulin receptor): > 10000 nM
IC50 (Angiopoietin-1 receptor): > 10000 nM
IC50 [18]: 230 nM
IC50 [19]: > 10000 nM
IC50 [20]: 3200 nM
IC50 [21]: > 10000 nM
IC50 [22]: > 10000 nM
IC50 [23]: > 10000 nM
IC50 [24]: 9800 nM
IC50 [25]: > 10000 nM
IC50 [26]: 1700 nM
IC50 [27]: > 10000 nM
IC50 [28]: > 10000 nM
IC50 [29]: > 10000 nM
IC50 [30]: > 10000 nM
IC50 [31]: 870 nM
IC50 [32]: 5600 nM
IC50 (Aurora kinase B): > 10000 nM

CS(=O)(=O)CCNC(=O)C1=Cc2c(ncnc2Nc2ccc(Oc3cccc(C(F)(F)F)c3)c(Cl)c2)NCC1
GI50 (BT-474): 620 nM
IC50 [8]: 65 nM
IC50 [33]: 75 nM

CC(C)(O)CC(=O)NCCn1ccc2ncnc(Nc3ccc(Oc4cccc(C(F)(F)F)c4)c(Cl)c3)c21 [TAK-285]
GI50 (BT-474): 17 nM

COC(=O)C1=Cc2c(ncnc2Nc2ccc(Oc3cccc(C(F)(F)F)c3)c(Cl)c2)NCC1
GI50 (BT-474): 2000 nM
IC50 [8]: 100 nM
IC50 [33]: 110 nM

O=C(NCCO)C1=Cc2c(ncnc2Nc2ccc(Oc3cccc(C(F)(F)F)c3)c(Cl)c2)NCC1
GI50 (BT-474): 630 nM
IC50 [8]: 29 nM
IC50 [33]: 38 nM

CS(=O)(=O)CCNC(=O)C1=Cc2c(ncnc2Nc2ccc(Oc3cccc4sccc34)c(Cl)c2)NCC1
GI50 (BT-474): 25 nM
IC50 [8]: 30 nM
IC50 [33]: 47 nM

COC(=O)C1=Cc2c(ncnc2Nc2ccc(Oc3cccc4sccc34)c(Cl)c2)NCC1
GI50 (BT-474): 190 nM
IC50 [8]: 18 nM
IC50 [33]: 44 nM
